Results taken from patent publication US20260364030A1, “NOVEL SELECTIVE INHIBITORS OF LYSYL OXIDASES” (Syntara Limited, priority 2022, published 2026).
Where two headings read alike, the source gives them in different places.

What was measured:
[1] = system: breast cancer model (MMTV-PyMT); conditions: cited from earlier work
[2] = target: T1, Bovine LOX (Bos taurus, UniProt P33072); test: LOX inhibition, hydrogen peroxide Amplex Red oxidation assay; assay type: biochemical; conditions: 2 h incubation with enzyme at 37 °C
T1 sequence (P33072 170-418): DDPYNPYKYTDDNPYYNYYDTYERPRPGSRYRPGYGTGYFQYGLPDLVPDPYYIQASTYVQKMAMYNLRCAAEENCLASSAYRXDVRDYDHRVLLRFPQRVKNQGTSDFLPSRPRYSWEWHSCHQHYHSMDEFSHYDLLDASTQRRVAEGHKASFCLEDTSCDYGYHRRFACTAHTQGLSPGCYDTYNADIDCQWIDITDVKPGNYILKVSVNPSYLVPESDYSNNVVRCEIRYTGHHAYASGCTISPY
Experimental: (§1) LOX and LOXL protein family members can be acquired as recombinant active proteins from commercial sources, or extracted from animal tissues like bovine aorta, tendons, pig skin; or prepared from cell cultures. The inhibitory effects of the compounds of the present invention were tested against the given LOX or LOXL preparation using a method based on the detection of hydrogen peroxide with an Amplex Red oxidation assay [Zhou et al, 1997]. The assay was developed using either 384 or 96 well format. Briefly, in a standard black, clear bottom 384 well plate assay 25 µL of a dilution of any of the isoenzymes and orthologues in 1.2 M urea, 50 mM sodium borate buffer (pH 8.2) were added into each well in the presence of […] and 0.5 mM pargyline (to inhibit SSAO and MAO-B and MAO-A, respectively; not necessary if the enzyme is from a recombinant or purified form). […] of a reaction mixture containing twice the KM concentration of putrescine (Sigma Aldrich, e.g. 20 mM for LOX and LOXL1 or 10 mM for LOXL2 and 4 mM for LOXL3 and LOXL4), 120 µM Amplex Red (Thermo Fisher Scientific) and 1.5 U/mL horseradish peroxidase (Sigma Aldrich) prepared in 1.2 M urea, 50 mM sodium borate buffer (pH 8.2) were then added to the corresponding wells. The above volumes were doubled in the case of 96 wells plate. The fluorescence (RFU) was read every 2.5 min for 30 min at 37 °C, excitation 544 nm and emission 590 (Optima; BMG labtech). The slope/min of the kinetics for each well was calculated using MARS data analysis software (BMG labtech) and this value was used to deduce the IC50 value (Dotmatics). The ability of the inventive compounds to inhibit the amine oxidase activity of LOX and other family members is shown in Table 5.

[3] = target: T2, LOXL2 (Homo sapiens, UniProt Q9Y4K0); test: LOXL2 inhibition, Amplex Red oxidation assay; assay type: biochemical; conditions: 2 h incubation with enzyme at 37 °C; read-out: Human LOXL2 Activity IC50
T2 sequence (Q9Y4K0 26-774): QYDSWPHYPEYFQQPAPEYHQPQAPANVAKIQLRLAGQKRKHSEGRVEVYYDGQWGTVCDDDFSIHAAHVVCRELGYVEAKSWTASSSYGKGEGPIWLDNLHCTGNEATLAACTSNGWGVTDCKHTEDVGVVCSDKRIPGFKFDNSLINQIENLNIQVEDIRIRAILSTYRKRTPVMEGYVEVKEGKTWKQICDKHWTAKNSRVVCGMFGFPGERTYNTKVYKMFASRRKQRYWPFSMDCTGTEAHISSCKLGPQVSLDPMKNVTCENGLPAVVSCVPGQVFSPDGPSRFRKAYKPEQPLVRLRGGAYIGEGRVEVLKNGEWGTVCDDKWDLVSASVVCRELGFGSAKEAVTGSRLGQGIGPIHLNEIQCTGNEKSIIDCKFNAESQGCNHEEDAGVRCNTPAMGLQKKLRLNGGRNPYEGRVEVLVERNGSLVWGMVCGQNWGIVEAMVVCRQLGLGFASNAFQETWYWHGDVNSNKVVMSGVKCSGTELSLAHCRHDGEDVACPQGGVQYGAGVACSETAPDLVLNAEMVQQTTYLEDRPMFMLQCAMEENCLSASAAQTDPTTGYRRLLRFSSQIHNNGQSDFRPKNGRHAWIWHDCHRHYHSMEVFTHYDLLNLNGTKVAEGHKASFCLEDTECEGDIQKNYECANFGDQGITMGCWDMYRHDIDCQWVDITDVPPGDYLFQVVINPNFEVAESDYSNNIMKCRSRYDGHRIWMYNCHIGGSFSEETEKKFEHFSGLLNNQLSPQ
Experimental: as §1

[4] = system: massive, pedunculated keloids; conditions: cited from earlier work

SMILES | IC50 [2] | IC50 [3] | also measured
CS(=O)(=O)c1cc(-c2ccccc2)cc(S(=O)(=O)c2ccc(CN)s2)c1 [CCT365623] | – | – | Metastasis and survival [1]: reduce metastasis and increase survival
NC/C(=C\F)CS(=O)(=O)c1cccc2c1OCCO2 [Compound 33, (E)-2-(((2,3-dihydrobenzo[b][1,4]dioxin-5-yl)sulfonyl)methyl)-3-fluoroprop-2-en-1-amine] | < 10 µM | < 10 µM | –
CS(=O)(=O)c1cccc(Oc2ccccc2S(=O)(=O)C/C(=C/F)CN)c1 [Compound 35, (E)-3-fluoro-2-(((2-(3-(methylsulfonyl)phenoxy)phenyl)sulfonyl)methyl)prop-2-en-1-amine] | < 5 µM | < 2 µM | –
NC/C(=C\F)CS(=O)(=O)c1cccc(CN2CCCCCC2=O)c1 [Compound 36, (E)-1-(3-((2-(aminomethyl)-3-fluoroallyl)sulfonyl)benzyl)azepan-2-one] | < 10 µM | < 5 µM | –
NC/C(=C/F)CS(=O)(=O)c1ccccc1 [Compound 37, (Z)-3-fluoro-2-((phenylsulfonyl)methyl)prop-2-en-1-amine] | < 2 µM | < 2 µM | –
COc1cc2c(c(OC)c1OC)-c1ccc(OC)c(=O)cc1[C@@H](NC(C)=O)CC2 [colchicine] | – | – | Effect on surface scarring ([4]; human, in vivo): measurable beneficial effect on surface scarring
CC(C)(S)[C@@H](N)C(=O)O [penicillamine] | – | – | Effect on surface scarring ([4]; BAPN or penicillamine, and colchicine, following excision of keloid and grafting): measurable beneficial effect on surface scarring
